US8476265B2, “Compounds-801” (AstraZeneca AB, priority 2010, dated 2013)

Columns and labels:
Adrenergic β2 = target: T1, Adrenergic β2 (Homo sapiens, UniProt P07550); assay: Adrenergic β2 mediated cAMP production in H292 cells (AlphaScreen), concentration response; assay type: cell-based; details: for EC50: 60 min, 300 μM rolipram, read-out: β2 pEC50 (converted); for β2 Intrinsic Activity: fraction relative to the maximum activity determined for formoterol
T1 construct: Adherent H292 cells are removed from tissue culture flasks by treatment with Accutase™ cell detachment solution; endogenous in cells; host or cells: H292 cells
T1 sequence (P07550 whole entry): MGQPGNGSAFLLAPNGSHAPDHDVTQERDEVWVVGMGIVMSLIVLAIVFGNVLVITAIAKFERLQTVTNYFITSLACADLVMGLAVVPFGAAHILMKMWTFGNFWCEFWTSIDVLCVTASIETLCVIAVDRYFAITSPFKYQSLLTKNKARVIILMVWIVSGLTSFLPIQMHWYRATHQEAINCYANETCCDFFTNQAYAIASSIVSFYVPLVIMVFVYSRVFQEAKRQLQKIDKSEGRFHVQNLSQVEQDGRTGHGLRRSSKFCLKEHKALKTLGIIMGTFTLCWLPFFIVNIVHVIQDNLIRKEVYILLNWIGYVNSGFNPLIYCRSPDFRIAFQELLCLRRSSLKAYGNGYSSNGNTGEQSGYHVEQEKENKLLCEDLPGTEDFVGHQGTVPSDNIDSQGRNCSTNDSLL
Summary of the method: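 H292 cells seeded overnight, pretreated 10 min with rolipram (300 μM final), then exposed to compounds 60 min at room temperature in HBSS/10 mM HEPES pH 7.4/5 mM glucose, 1% DMSO. Lysate cAMP quantified by AlphaScreen against a standard curve; four-parameter fit gives pEC50 and intrinsic activity relative to formoterol maximum.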

[1] = target: T2, human muscarinic acetylcholine M3 receptor (Homo sapiens, UniProt P20309); assay: Muscarinic 3 receptor binding assay ([3H]NMS competition, SPA), pIC50; details: [3H]NMS 0.1 nM, CHO-K1 cell membranes expressing human M3 receptor
T2 construct: expressed in transfected cells; host or cells: CHO-K1 (Chinese Hamster Ovary) cell membranes
T2 sequence (P20309 whole entry): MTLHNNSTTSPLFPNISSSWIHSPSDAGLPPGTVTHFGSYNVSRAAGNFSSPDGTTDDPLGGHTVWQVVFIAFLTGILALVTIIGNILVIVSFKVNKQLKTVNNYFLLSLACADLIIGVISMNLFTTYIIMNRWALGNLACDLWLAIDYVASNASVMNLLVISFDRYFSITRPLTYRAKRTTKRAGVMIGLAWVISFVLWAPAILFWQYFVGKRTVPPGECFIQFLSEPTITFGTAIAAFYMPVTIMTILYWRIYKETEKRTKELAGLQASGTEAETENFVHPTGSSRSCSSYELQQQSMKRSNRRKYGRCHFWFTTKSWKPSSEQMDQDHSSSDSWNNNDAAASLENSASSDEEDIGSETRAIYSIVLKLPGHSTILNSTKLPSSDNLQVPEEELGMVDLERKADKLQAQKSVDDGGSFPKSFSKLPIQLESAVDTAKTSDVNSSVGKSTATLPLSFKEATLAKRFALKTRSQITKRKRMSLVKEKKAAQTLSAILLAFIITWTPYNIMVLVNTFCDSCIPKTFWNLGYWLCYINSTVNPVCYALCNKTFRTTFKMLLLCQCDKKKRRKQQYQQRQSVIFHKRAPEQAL
Summary of the method: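 Competition of [3H]NMS (0.1 nM, quarter Kd) binding to CHO-K1 membranes expressing human M3, SPA format, in 20 mM HEPES pH 7.4, 5 mM MgCl2, 0.1% BSA, 1% DMSO. Incubated 16 h at room temperature; non-specific binding with 1 μM atropine; pIC50 from specific binding.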

SMILES | EC50 (Adrenergic β2) | β2 Intrinsic Activity (Adrenergic β2) | IC50 [1]
CC(C)c1nc(C(=O)N2CCOC3(CCN(CCc4cccc(CCOCCC(=O)N(CCNCCc5ccc(O)c6c5OCC(=O)N6)Cc5ccccc5)c4)CC3)C2)cs1 [Example 41, N-Benzyl-N-(2-(2-(5-hydroxy-3-oxo-3,4-dihydro-2H-benzo[b][1,4]oxazin-8-yl)ethylamino)ethyl)-3-(3-(2-(4-(2-isopropylthiazole-4-carbonyl)-1-oxa-4,9-diazaspiro[5.5]undecan-9-yl)ethyl)phenethoxy)propanamide ditrifluoroacetate] | 20 nM | 0.9 | 0.794 nM
Cc1nc(C(=O)N2CCOC3(CCN(Cc4cccc(CCOCCC(=O)N(CCNCCc5ccc(O)c6[nH]c(=O)ccc56)C5CCCCC5)c4)CC3)C2)cs1 [Example 42, N-Cyclohexyl-N-(2-(2-(8-hydroxy-2-oxo-1,2-dihydroquinolin-5-yl)ethylamino)ethyl)-3-(3-((4-(2-methylthiazole-4-carbonyl)-1-oxa-4,9-diazaspiro[5.5]undecan-9-yl)methyl)phenethoxy)propanamide ditrifluoroacetate] | 398 nM | 1.0 | < 0.0316 nM
Cc1nc(C(=O)N2CCOC3(CCN(Cc4ccc(CCOCCC(=O)N(CCNCCc5ccc(O)c6c5OCC(=O)N6)C5CCCCC5)cc4)CC3)C2)cs1 [Example 45, N-Cyclohexyl-N-(2-(2-(5-hydroxy-3-oxo-3,4-dihydro-2H-benzo[b][1,4]oxazin-8-yl)ethylamino)ethyl)-3-(4-((4-(2-methylthiazole-4-carbonyl)-1-oxa-4,9-diazaspiro[5.5]undecan-9-yl)methyl)phenethoxy)propanamide ditrifluoroacetate] | 39.8 nM | 0.9 | 6.31 nM
CC(C)c1nc(C(=O)N2CCOC3(CCN(Cc4cc(F)cc(CCOCCC(=O)N(CCNCCc5ccc(O)c6c5OCC(=O)N6)C5CCCCC5)c4)CC3)C2)cs1 [Example 47, N-Cyclohexyl-3-(3-fluoro-5-((4-(2-isopropylthiazole-4-carbonyl)-1-oxa-4,9-diazaspiro[5.5]undecan-9-yl)methyl)phenethoxy)-N-(2-(2-(5-hydroxy-3-oxo-3,4-dihydro-2H-benzo[b][1,4]oxazin-8-yl)ethylamino)ethyl)propanamide ditrifluoroacetate] | 63.1 nM | 0.9 | 0.398 nM
CC(C)c1nc(C(=O)N2CCOC3(CCN(CCOc4ccc(CCOCCC(=O)N(CCNCCc5ccc(O)c6c5OCC(=O)N6)C5CCCCC5)cc4)CC3)C2)cs1 [Example 51, N-Cyclohexyl-N-(2-(2-(5-hydroxy-3-oxo-3,4-dihydro-2H-benzo[b][1,4]oxazin-8-yl)ethylamino)ethyl)-3-(4-(2-(4-(2-isopropylthiazole-4-carbonyl)-1-oxa-4,9-diazaspiro[5.5]undecan-9-yl)ethoxy)phenethoxy)propanamide ditrifluoroacetate] | 63.1 nM | 1.1 | 3.98 nM

Results, then the molecule that gave them:

EC50 (Adrenergic β2) | β2 Intrinsic Activity (Adrenergic β2) | IC50 [1] | SMILES
20 nM | 1.0 | 1.26 nM | CC(C)CN(CCNCCc1ccc(O)c2c1OCC(=O)N2)C(=O)CCOCCc1cccc(CCN2CCC3(CC2)CN(C(=O)c2csc(C(C)C)n2)CCO3)c1 [Example 40, N-(2-(2-(5-Hydroxy-3-oxo-3,4-dihydro-2H-benzo[b][1,4]oxazin-8-yl)ethylamino)ethyl)-N-Isobutyl-3-(3-(2-(4-(2-isopropylthiazole-4-carbonyl)-1-oxa-4,9-diazaspiro[5.5]undecan-9-yl)ethyl)phenethoxy)propanamide ditrifluoroacetate]
398 nM | 0.9 | 1 nM | CCN(CCNCCc1ccc(O)c2[nH]c(=O)sc12)C(=O)CCOCCc1cc(CN2CCC3(CC2)CN(C(=O)c2csc(C(C)C)n2)CCO3)ccc1F [Example 43, N-Ethyl-3-(2-fluoro-5-((4-(2-isopropylthiazole-4-carbonyl)-1-oxa-4,9-diazaspiro[5.5]undecan-9-yl)methyl)phenethoxy)-N-(2-(2-(4-hydroxy-2-oxo-2,3-dihydrobenzo[d]thiazol-7-yl)ethylamino)ethyl)propanamide ditrifluoroacetate]
501 nM | 1.1 | 0.501 nM | CCN(CCNCCc1ccc(O)c2[nH]c(=O)sc12)C(=O)CCOCCc1ccc(F)c(CN2CCC3(CC2)CN(C(=O)c2csc(C(C)C)n2)CCO3)c1 [Example 44, N-Ethyl-3-(4-fluoro-3-((4-(2-isopropylthiazole-4-carbonyl)-1-oxa-4,9-diazaspiro[5.5]undecan-9-yl)methyl)phenethoxy)-N-(2-(2-(4-hydroxy-2-oxo-2,3-dihydrobenzo[d]thiazol-7-yl)ethylamino)ethyl)propanamide]
398 nM | 0.9 | 0.316 nM | CCN(CCNCCc1ccc(O)c2[nH]c(=O)sc12)C(=O)CCOCCc1cc(CN2CCC3(CC2)CN(C(=O)c2csc(C)n2)CCO3)ccc1Cl [Example 46, 3-(2-Chloro-5-((4-(2-methylthiazole-4-carbonyl)-4-oxa-4,9-diazaspiro[5.5]undecan-9-yl)methyl)phenethoxy)-N-ethyl-N-(2-(2-(4-hydroxy-2-oxo-2,3-dihydrobenzo[d]thiazol-7-yl)ethylamino)ethyl)propanamide ditrifluoroacetate]
200 nM | 0.9 | 0.2 nM | CCN(CCNCCc1ccc(O)c2[nH]c(=O)sc12)C(=O)CCOCCc1csc(CN2CCC3(CC2)CN(C(=O)c2csc(C(C)C)n2)CCO3)c1 [Example 48, N-Ethyl-N-(2-(2-(4-hydroxy-2-oxo-2,3-dihydrobenzo[d]thiazol-7-yl)ethylamino)ethyl)-3-(2-(5-((4-(2-isopropylthiazole-4-carbonyl)-1-oxa-4,9-diazaspiro[5.5]undecan-9-yl)methyl)thiophen-3-yl)ethoxy)propanamide ditrifluoroacetate]
158 nM | 0.9 | 3.16 nM | CC(C)c1nc(C(=O)N2CCOC3(CCN(Cc4cc(CCOCCC(=O)N(CCNCCc5ccc(O)c6c5OCC(=O)N6)C5CCCCC5)ccc4Cl)CC3)C2)cs1 [Example 49, 3-(4-Chloro-3-((4-(2-isopropylthiazole-4-carbonyl)-1-oxa-4,9-diazaspiro[5.5]undecan-9-yl)methyl)phenethoxy)-N-cyclohexyl-N-(2-(2-(5-hydroxy-3-oxo-3,4-dihydro-2H-benzo[b][1,4]oxazin-8-yl)ethylamino)ethyl)propanamide ditrifluoroacetate]
126 nM | 0.9 | 794 nM | CCN(CCNCCc1ccc(O)c2[nH]c(=O)sc12)C(=O)CCOCCc1cc(Cl)cc(CN2CCC3(CC2)CN(C(=O)c2csc(C(C)C)n2)CCO3)c1 [Example 50, 3-(3-Chloro-5-((4-(2-isopropylthiazole-4-carbonyl)-1-oxa-4,9-diazaspiro[5.5]undecan-9-yl)methyl)phenethoxy)-N-ethyl-N-(2-(2-(4-hydroxy-2-oxo-2,3-dihydrobenzo[d]thiazol-7-yl)ethylamino)ethyl)propanamide ditrifluoroacetate]
